This assay deals with T1, human GPR84 receptor (Homo sapiens, UniProt Q9NQS5).
T1 construct: frozen aliquots prepared by acCELLerate; host or cells: CHO-K1
Nature of the assay: cAMP HTRF assay for identification of cellular GPR84 antagonists. The class given is cell-based. The conditions noted are these: CHO-K1 cells stably expressing human GPR84; Forskolin + agonist 6-OAU (EC80); average or median values. Put shortly:
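IC50 came from 4-parameter fits over 20 μM–0.07 nM (11 points, duplicate), normalized between DMSO (0%) and agonist-free (100% inhibition) wells. Readout: cAMP-d2/Eu-cryptate HTRF in hGPR84 CHO-K1 cells given forskolin plus agonist, compound preincubated 30 min at room temperature.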

Each structure is given as a SMILES string.

T1 sequence (Q9NQS5 whole entry): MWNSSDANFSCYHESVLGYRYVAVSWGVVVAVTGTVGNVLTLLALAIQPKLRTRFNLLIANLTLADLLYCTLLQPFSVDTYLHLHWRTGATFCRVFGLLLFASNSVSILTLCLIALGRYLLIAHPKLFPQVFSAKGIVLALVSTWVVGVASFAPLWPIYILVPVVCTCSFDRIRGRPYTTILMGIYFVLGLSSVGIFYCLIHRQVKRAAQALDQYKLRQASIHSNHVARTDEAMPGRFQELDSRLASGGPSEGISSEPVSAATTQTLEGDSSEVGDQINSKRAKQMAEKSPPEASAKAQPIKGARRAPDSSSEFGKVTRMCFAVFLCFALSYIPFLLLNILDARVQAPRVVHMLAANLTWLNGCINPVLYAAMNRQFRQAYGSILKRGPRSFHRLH

The term IC50 denotes the concentration needed to halve the response being measured. For the compound `Cc1cnc(CNC(=O)c2oc3c(c2C(F)(F)F)-c2nn(C[C@H]4COCCO4)cc2[C@H](C)C3)cn1` (single isomer, unassigned) [Example 258, (4R or 4S)-2-{[(2S)-1,4-dioxan-2-yl]methyl}-4-methyl-N-[(5-methylpyrazin-2-yl)methyl]-8-(trifluoromethyl)-4,5-dihydro-2H-furo[2,3-g]indazole-7-carboxamide], the IC50 turned out to be 0.005 µM.
To `Cc1c(C(=O)NC[C@@H]2CCCO2)oc2c1-c1nn(Cc3ccccn3)cc1C1(CC1)C2` [Example 149] belongs 0.01 µM; to `O=C(NCC1CC(F)(F)CO1)c1oc2c(c1C(F)(F)F)-c1nn(C[C@H]3COCCO3)cc1CC2` (mixture of isomers) [Example 222, N-{[(2±)-4,4-difluorooxolan-2-yl]methyl}-2-{[(2S)-1,4-dioxan-2-yl]methyl}-8-(trifluoromethyl)-4,5-dihydro-2H-furo[2,3-g]indazole-7-carboxamide], 0.02 µM.
The result for `Cc1c(C(=O)NC[C@@H]2COCCO2)oc2c1-c1nn(C[C@H]3CN(C)CCO3)cc1CC2` [Example 102, N[(2R)-1,4-dioxan-2-ylmethyl]-8-methyl-2-{[(2R)-4-methylmorpholin-2-yl]methyl}-4,5-dihydro-2H-furo[2,3-g]indazole-7-carboxamide] reads 0.76 µM; that for `Cc1c(C(=O)NCc2nocc2C(=O)O)oc2c1-c1nn(Cc3ccccn3)cc1CC2` [Example 31, 3-[({[8-methyl-2-(pyridin-2-ylmethyl)-4,5-dihydro-2H-furo[2,3-g]indazol-7-yl]carbonyl}amino)methyl]-1,2-oxazole-4-carboxylic acid], > 20 µM; that for `Cc1c(C(=O)NCC2CC(F)(F)CO2)oc2c1-c1nn(Cc3ccccn3)cc1CC2` (racemic) [Example 174], 0.097 µM.
The result for `CCc1ccc(Cn2cc3c(n2)-c2c(oc(C(=O)NC[C@@H]4CCCO4)c2C)CC3)cn1` [Example 186] reads 0.063 µM.
For the compound `O=C(NC[C@@H]1COCCO1)c1oc2c(c1C1CC1)-c1nn(Cc3ccccn3)cc1CC2` [Example 120, 8-cyclopropyl-N-[(2R)-1,4-dioxan-2-ylmethyl]-2-(pyridin-2-ylmethyl)-4,5-dihydro-2H-furo[2,3-g]indazole-7-carboxamide], the IC50 was 0.051 µM.
Regarding `Cc1c(C(=O)NCC2COc3ncccc3O2)oc2c1-c1nn(Cc3ccccn3)cc1CC2` (racemic) [Example 9, N-[(2R/S)-2,3-dihydro[1,4]dioxino[2,3-b]pyridin-2-ylmethyl]-8-methyl-2-(pyridin-2-ylmethyl)-4,5-dihydro-2H-furo[2,3-g]indazole-7-carboxamide], the IC50 was found to be 0.19 µM.
The result for `O=C(NCCc1ccccn1)c1oc2c(c1C(F)(F)F)-c1nn(C[C@H]3COCCO3)cc1CC2` [Example 233, 2-[(2S)-1,4-Dioxan-2-ylmethyl]-N-[2-(pyridin-2-yl)ethyl]-8-(trifluormethyl)-4,5-dihydro-2H-furo[2,3-g]indazol-7-carboxamide] reads 1.12 µM.
The result for `Cc1ccc(CNC(=O)c2oc3c(c2C)-c2nn(Cc4ccccn4)cc2CC3)cc1` [Example 2, 8-methyl-N-[(4-methylphenyl)methyl]-2-[(pyridin-2-yl)methyl]-4,5-dihydro-2H-furo[2,3-g]indazole-7-carboxamide] reads 0.078 µM.
The result for `Cc1c(C(=O)NC[C@@H]2CCCO2)oc2c1-c1nn(CC3CC3)cc1CC2` [Example 48, 2-(cyclopropylmethyl)-8-methyl-N-[(2S)-tetrahydrofuran-2-ylmethyl]-4,5-dihydro-2H-furo[2,3-g]indazole-7-carboxamide] reads 0.097 µM.
Regarding `Cc1c(C(=O)NC[C@@H]2CCCO2)oc2c1-c1nn(C[C@H]3CCO3)cc1CC2` [Example 97, 8-methyl-2-[(2R)-oxetan-2-ylmethyl]-N-[(2S)-tetrahydrofuran-2-ylmethyl]-4,5-dihydro-2H-furo[2,3-g]indazole-7-carboxamide], the IC50 was 0.62 µM.
To `Cc1c(C(=O)NCc2ccon2)oc2c1-c1nn(CC3COc4ncccc4O3)cc1CC2` (single isomer, unassigned) [Example 55-2] belongs 0.043 µM; to `O=C(NC[C@@H]1CCCO1)c1oc2c(c1C(F)(F)F)-c1nn(CC3CCN(C(=O)c4ccccc4)CC3)cc1CC2` [Example 288, 2-[(1-benzoylpiperidin-4-yl)methyl]-N-{[(2S)-oxolan-2-yl]methyl}-8-(trifluoromethyl)-4,5-dihydro-2H-furo[2,3-g]indazole-7-carboxamide], 0.101 µM; to `CC1COC(CNC(=O)c2oc3c(c2C(F)(F)F)-c2nn(C[C@H]4COCCO4)cc2[C@H](C)C3)C1` (single isomer, unassigned) [Example 313, 2,5-anhydro-1,3,4-trideoxy-1-{[(4R or 4S)-2-{[(2S)-1,4-dioxan-2-yl]methyl}-4-methyl-8-(trifluoromethyl)-4,5-dihydro-2H-furo[2,3-g]indazole-7-carbonyl]amino}-4-methylpentitol], 0.021 µM.
To `Cc1ccc(Cn2cc3c(n2)-c2c(oc(C(=O)NC[C@@H]4COCCO4)c2C(F)(F)F)CC32CC2)cn1` [Example 212, N-{[(2R)-1,4-dioxan-2-yl]methyl}-2′-[(6-methylpyridin-3-yl)methyl]-8′-(trifluoromethyl)-2′,5′-dihydrospiro[cyclopropane-1,4′-furo[2,3-g]indazole]-7′-carboxamide] belongs 0.004 µM; to `Cc1c(C(=O)NC[C@@H]2CCCO2)oc2c1-c1nn(CCN3CCNCC3)cc1CC2` [Example 162, 8-methyl-2-[2-(piperazin-1-yl)ethyl]-N-[(2S)-tetrahydrofuran-2-ylmethyl]-4,5-dihydro-2H-furo[2,3-g]indazole-7-carboxamide], 6.74 µM.
The result for `Cc1c(C(=O)NCc2nccs2)oc2c1-c1nn(Cc3ccccn3)cc1CC2` [Example 23, 8-methyl-2-(pyridin-2ylmethyl)-N-(1,3-thiazol-2-ylmethyl)-4,5-dihydro-2H-furo[2,3-g]indazole-7-carboxamide] reads 0.16 µM; that for `Cc1ccn(CCNC(=O)c2oc3c(c2C(F)(F)F)-c2nn(C[C@H]4COCCO4)cc2CC3)n1` [Example 234, 2-[(2S)-1,4-Dioxan-2-ylmethyl]-N-[2-(3-methyl-1H-pyrazol-1-yl)ethyl]-8-(trifluormethyl)-4,5-dihydro-2H-furo[2,3-g]indazol-7-carboxamide], 3.47 µM; that for `Cc1c(C(=O)NC[C@@H]2COCCO2)oc2c1-c1nn(CC3(F)COC3)cc1CC2` [Example 96, N-[(2R)-1,4-dioxan-2-ylmethyl]-2-[(3-fluorooxetan-3-yl)methyl]-8-methyl-4,5-dihydro-2H-furo[2,3-g]indazole-7-carboxamide], 0.047 µM.
With `Cc1cccc(Cn2cc3c(n2)-c2c(oc(C(=O)NCc4ncco4)c2C)CC3)n1` [Example 72, 8-methyl-2-[(6-methylpyridin-2-yl)methyl]-N-(1,3-oxazol-2-ylmethyl)-4,5-dihydro-2H-furo[2,3-g]indazole-7-carboxamide], the IC50 turned out to be 0.24 µM.
As for `Cc1c(C(=O)NC[C@@H]2CCCO2)oc2c1-c1nn(Cc3noc(C4CC4)n3)cc1CC2` [Example 137, 2-[(5-cyclopropyl-1,2,4-oxadiazol-3-yl)methyl]-8-methyl-N-[(2S)-tetrahydrofuran-2-ylmethyl]-4,5-dihydro-2H-furo[2,3-g]indazole-7-carboxamide], the IC50 amounted to 0.045 µM.
To `Cc1c(C(=O)NCc2cc(-c3ccccc3Cl)on2)oc2c1-c1nn(Cc3ccccn3)cc1CC2` [Example 17, N-{[5-(2-chlorophenyl)-1,2-oxazol-3-yl]methyl}-8-methyl-2-(pyridin-2-ylmethyl)-4,5-dihydro-2H-furo[2,3-g]indazole-7-carboxamide] belongs 10.1 µM.
To `C[C@@H]1Cc2oc(C(=O)NCc3cncs3)c(C(F)(F)F)c2-c2nn(C[C@H]3COCCO3)cc21` (single isomer, unassigned) [Example 316, (4R or 4S)-2-{[(2S)-1,4-dioxan-2-yl]methyl}-4-methyl-N-[(1,3-thiazol-5-yl)methyl]-8-(trifluoromethyl)-4,5-dihydro-2H-furo[2,3-g]indazole-7-carboxamide] belongs 0.374 µM; to `O=C(NCc1ncco1)c1oc2c(c1C(F)(F)F)-c1nn(C[C@H]3COCCO3)cc1C1(CCC1)C2` [Example 272, 2′-{[(2S)-1,4-dioxan-2-yl]methyl}-N-[(1,3-oxazol-2-yl)methyl]-8′-(trifluoromethyl)-2′,51-dihydrospiro[cyclobutane-1,4′-furo[2,3-g]indazole]-7′-carboxamide], 0.042 µM; to `Cc1c(C(=O)NCc2ccn(C)n2)oc2c1-c1nn(C[C@H]3COCCO3)cc1C1(CC1)C2` [Example 127, 2′-[(2S)-1,4-dioxan-2-ylmethyl]-8′-methyl-N-[(1-methyl-1H-pyrazol-3-yl)methyl]-2′,5′-dihydrospiro[cyclopropane-1,4′-furo[2,3-g]indazole]-7′-carboxamide], 0.17 µM.
To `Cc1c(C(=O)NC[C@@H]2CCCO2)oc2c1-c1nn(CC3CCOCC3)cc1CC2` [Example 189] belongs 0.109 µM.
For the compound `O=C(NCc1ncco1)c1oc2c(c1C(F)(F)F)-c1nn(Cc3ccccn3)cc1CC2` [Example 118, N-(1,3-oxazol-2-ylmethyl)-2-(pyridin-2-ylmethyl)-8-(trifluoromethyl)-4,5-dihydro-2H-furo[2,3-g]indazole-7-carboxamide], the IC50 worked out at 0.024 µM.
The result for `Cc1ncc(CNC(=O)c2oc3c(c2C(F)(F)F)-c2nn(C[C@H]4COCCO4)cc2[C@H](C)C3)cn1` (single isomer, unassigned) [Example 302, (4R or 4S)-2-{[(2S)-1,4-dioxan-2-yl]methyl}-4-methyl-N-[(2-methylpyrimidin-5-yl)methyl]-8-(trifluoromethyl)-4,5-dihydro-2H-furo[2,3-g]indazole-7-carboxamide] reads 1.51 µM; that for `O=C(NC[C@@H]1COCCO1)c1oc2c(c1C1CC1)-c1nn(C[C@H]3COCCO3)cc1CC2` [Example 193], 0.032 µM.

The values above are taken from patent publication US12570666B2, “Furoindazole derivatives” (Bayer Aktiengesellschaft, priority 2019, dated 2026).
